US20190111040A1, “IN VIVO AMELIORATION OF ENDOGENOUS ANTI-TUMOR AUTOANTIBODIES TARGETING SURFACE TUMOR ANTIGENS VIA LOW-DOSE P4N” (THE JOHNS HOPKINS UNIVERSITY, priority 2016, published 2019)

Columns and labels:
[1] = system: LTB4 production; conditions: reference (32); cited from earlier work
[2] = system: Raji or OKT3 cells; test: Cell proliferation assay with THP-1-conditioned media; type: cell-based; conditions: conditioned medium from THP-1 cells treated with P4N and the inhibitor
Procedure: (§1) FIGS. 5A-5F depict the expression of Activin A/BAFF induced by P4N treatments. (A) P4N induced Activin A or BAFF expression in human PBMCs as determined by RT-PCR. S1-S5 display different individual blood samples collected from 5 different human donors; N, no treatment; P, P4N-treatment (3 μM). The change in Activin A and BAFF expression (mean of 5 patients) relative to the control (NC) is plotted as a histogram (B) The effect of increasing dosages of P4N for 12 h on mRNA and protein levels of Activin A or BAFF in THP-1 cells was analyzed by RT-PCR and ELISA. (C) The effect of 6 μM P4N on mRNA and protein levels of Activin A or BAFF in THP-1 cells was determined at a different time period. (D) The effect of different inhibitors on Activin A-induced BAFF expression was examined. The expression of BAFF mRNA in inhibitor-treated THP-1 cells was determined by RT-PCR, and (E) BAFF protein secretion was measured by ELISA. (F) The effect of THP-1 conditioned media on the proliferation of Raji cells and OKT3 hybridoma cells were determined. Media were harvested, in which THP-1 cells were pre-treated without inhibitor (2) or with SB431542 (3), A83-01 (4), SIS3 (5), SB203580 (6) or PD98059 (7) and then treated with P4N for 12 h. The results are expressed as % viable cells relative to the control (NC, media from untreated THP-1 cells). All values are the means of triplicate samples±SEM. The significant differences in the results of inhibitor and P4N-treated groups compared with the untreated group are indicated by ***P<0.001.
Cell proliferation assay. Raji or OKT3 cells (1×10^4/well) were seeded and treated with THP-1-conditioned media. After 48 h the number of viable cells was determined by MTT assay. The indices of cell proliferation were calculated as previously described.

[3] = system: THP-1 cells; test: Effect of inhibitors on Activin A-induced BAFF expression in THP-1 cells; type: cell-based; conditions: THP-1 cells treated with inhibitor and P4N
Procedure: as §1
Reverse transcription PCR. Human PBMCs or THP-1 cells were treated with P4N, and then the mRNA expression of INHBA and BAFF in these cells was measured by reverse transcription PCR. Briefly, total cellular RNA was extracted with Trizol reagent (Invitrogen) and reverse-transcribed into cDNA using the Superscript RT-kit (Invitrogen). The cDNA of INHBA and BAFF were then amplified by PCR. GAPDH cDNA in the samples was used to normalize the loading amounts in each reaction. Finally, PCR products were resolved by electrophoresis on 2% agarose gels and visualized with ethidium bromide.

[4] = system: THP-1 cells; test: TNF-α, IL-8 and Activin A ELISA in THP-1 cells with bestatin and P4N; type: cell-based; conditions: 10 μM bestatin 2 h, then 3 μM P4N
Procedure: FIGS. 6A-6E show P4N directly regulated LTA4H to induce monocyte inflammation. (A) P4N (orange) was docked with LTA4H by iGEMDOCK software (gemdock.life.nctu.edu.tw/dock/igemdock.php). RB3041 (Pink) is a small molecule inhibitor that identifies the active site of LTA4H. The amino acids that potentially interact with P4N are noted. The effects of P4N and bestatin on monocytes and their expression of (B) LTB4, (C) TNF-α, (D) IL-8, or (E) Activin A were determined and shown for different times. All values were expressed as the mean±SEM. **P<0.05, group P4N vs group (P4N+bestatin).
ELISA assays. THP-1 cells (1×10^6 cells/ml/well) in a 24-well culture plate were pretreated with 10 μM bestatin (a LTA4H inhibitor, Sigma-Aldrich) for 2 h and then treated with 3 μM P4N for various time intervals. The levels of LTB4 in the culture media were determined by the LTB4 (Enzo Life Sciences, Farmingdale, N.Y.) (R&D) ELISA Kits. The amount of TNF-α, IL-8 and Activin A in cultured media were measured in a similar manner.

CC(Cc1ccc(O)c(O)c1)C(C)Cc1ccc(O)c(O)c1 (centres unmarked) [NDGA, Nordihydroguaiaretic acid]
LTB4 production [1]: inhibits LTB4 production

COc1cc2c(cc1OC)CN(C(=O)/C=C/c1c(-c3ccccc3)n(C)c3ncccc13)CC2 [SIS3]
proliferative activity of conditioned medium on Raji or OKT3 cells [2]: lost its activity
BAFF transcription and protein expression [3]: significantly reduced

COc1cccc(-c2cc(=O)c3ccccc3o2)c1N [PD98059]
BAFF transcription and protein expression [3]: had fewer effects

NC(=O)c1ccc(-c2nc(-c3ccc4c(c3)OCO4)c(-c3ccccn3)[nH]2)cc1 [SB431542]
proliferative activity of conditioned medium on Raji or OKT3 cells [2]: lost its activity
BAFF transcription and protein expression [3]: significantly reduced

Cc1cccc(-c2nn(C(=S)Nc3ccccc3)cc2-c2ccnc3ccccc23)n1 [A83-01]
proliferative activity of conditioned medium on Raji or OKT3 cells [2]: lost its activity
BAFF transcription and protein expression [3]: significantly reduced

CC(C)C[C@H](NC(=O)[C@@H](O)[C@H](N)Cc1ccccc1)C(=O)O [Bestatin]
P4N-induced expression of Activin A [4]: inhibited
expression of TNF-α and IL-8 [4]: not suppressed

C[S+]([O-])c1ccc(-c2nc(-c3ccncc3)c(-c3ccc(F)cc3)[nH]2)cc1 (centres unmarked) [SB203580]
BAFF transcription and protein expression [3]: had fewer effects
